Source: ChEMBL document CHEMBL1201862, “PubChem BioAssay data set” (2004)
The source made the active and inactive calls. Cut-off read from the data, not from the text of the source, for most assays here: active = IC50 of 10 µM or less and inactive = more.

Experiments:
[1] = viability of uninfected HEp-2 cells – cell-based, HTS, cytotoxicity control for RSV inhibitor project, dose response (AID 2410); type: functional; settings: human respiratory syncytial virus
[2] = biological target: T1, Insulin-degrading enzyme (Homo sapiens, UniProt P14735); experiment: recombinant IDE activation, cell-free – biochemical, fluorescence polarization, counter-screen for IDE activator project, dose response (AID 588681)
T1 sequence (P14735 whole entry): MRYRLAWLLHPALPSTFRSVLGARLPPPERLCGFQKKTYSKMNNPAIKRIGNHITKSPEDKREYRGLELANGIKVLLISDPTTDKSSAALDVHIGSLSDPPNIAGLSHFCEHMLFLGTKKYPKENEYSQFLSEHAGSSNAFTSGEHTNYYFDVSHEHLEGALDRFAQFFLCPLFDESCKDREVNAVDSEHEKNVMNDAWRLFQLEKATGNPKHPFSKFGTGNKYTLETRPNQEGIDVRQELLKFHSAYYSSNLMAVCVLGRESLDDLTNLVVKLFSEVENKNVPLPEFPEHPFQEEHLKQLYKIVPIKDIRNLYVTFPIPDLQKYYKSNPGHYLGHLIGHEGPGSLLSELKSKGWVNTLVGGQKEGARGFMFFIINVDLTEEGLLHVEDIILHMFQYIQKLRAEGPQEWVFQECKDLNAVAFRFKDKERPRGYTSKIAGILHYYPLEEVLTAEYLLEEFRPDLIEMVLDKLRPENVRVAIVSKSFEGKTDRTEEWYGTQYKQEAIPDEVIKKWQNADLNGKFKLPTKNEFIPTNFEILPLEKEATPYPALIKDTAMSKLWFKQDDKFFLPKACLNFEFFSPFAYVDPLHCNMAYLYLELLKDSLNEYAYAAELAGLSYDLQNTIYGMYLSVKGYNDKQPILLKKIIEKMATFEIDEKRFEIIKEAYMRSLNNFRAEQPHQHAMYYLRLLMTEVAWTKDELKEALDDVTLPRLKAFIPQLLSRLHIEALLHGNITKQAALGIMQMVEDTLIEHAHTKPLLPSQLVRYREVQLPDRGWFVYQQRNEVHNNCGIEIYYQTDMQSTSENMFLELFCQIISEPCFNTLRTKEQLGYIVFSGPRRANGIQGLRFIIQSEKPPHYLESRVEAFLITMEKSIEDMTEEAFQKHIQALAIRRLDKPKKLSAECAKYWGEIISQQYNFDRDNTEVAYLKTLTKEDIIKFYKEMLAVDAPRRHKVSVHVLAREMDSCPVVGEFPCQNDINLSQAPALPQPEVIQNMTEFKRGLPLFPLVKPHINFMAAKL

[3] = biological target: T1, Insulin-degrading enzyme; experiment: cellular IDE activation of Abeta substrate cleavage – fluorescence polarization, HEK cells, dose response (AID 588439); type: functional, cell-based
[4] = test system: HEK293; experiment: membrane integrity loss in HEK cells – cell-based, fluorescence, cytotoxicity control for IDE activator project, dose response (AID 588440); type: functional; settings: Homo sapiens;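 note: cytotoxicity by LDH release measuring loss of membrane integrity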
[5] = test system: HEK293; experiment: optical interference in Abeta FP readout, dose response, artefact control for IDE activator project, biochemical, fluorescence polarization (AID 588442); type: functional, cell-based; settings: Homo sapiens
[6] = biological target: Ras and Rab interactor 1/Tyrosine-protein kinase ABL1 (Homo sapiens, UniProt P00519+Q13671); type: functional;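 note: biochemical TR-FRET dose-response test measuring inhibition of binding between Rin1 and Abl proteins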
Chain of Ras and Rab interactor 1/Tyrosine-protein kinase ABL1 (P00519 whole entry): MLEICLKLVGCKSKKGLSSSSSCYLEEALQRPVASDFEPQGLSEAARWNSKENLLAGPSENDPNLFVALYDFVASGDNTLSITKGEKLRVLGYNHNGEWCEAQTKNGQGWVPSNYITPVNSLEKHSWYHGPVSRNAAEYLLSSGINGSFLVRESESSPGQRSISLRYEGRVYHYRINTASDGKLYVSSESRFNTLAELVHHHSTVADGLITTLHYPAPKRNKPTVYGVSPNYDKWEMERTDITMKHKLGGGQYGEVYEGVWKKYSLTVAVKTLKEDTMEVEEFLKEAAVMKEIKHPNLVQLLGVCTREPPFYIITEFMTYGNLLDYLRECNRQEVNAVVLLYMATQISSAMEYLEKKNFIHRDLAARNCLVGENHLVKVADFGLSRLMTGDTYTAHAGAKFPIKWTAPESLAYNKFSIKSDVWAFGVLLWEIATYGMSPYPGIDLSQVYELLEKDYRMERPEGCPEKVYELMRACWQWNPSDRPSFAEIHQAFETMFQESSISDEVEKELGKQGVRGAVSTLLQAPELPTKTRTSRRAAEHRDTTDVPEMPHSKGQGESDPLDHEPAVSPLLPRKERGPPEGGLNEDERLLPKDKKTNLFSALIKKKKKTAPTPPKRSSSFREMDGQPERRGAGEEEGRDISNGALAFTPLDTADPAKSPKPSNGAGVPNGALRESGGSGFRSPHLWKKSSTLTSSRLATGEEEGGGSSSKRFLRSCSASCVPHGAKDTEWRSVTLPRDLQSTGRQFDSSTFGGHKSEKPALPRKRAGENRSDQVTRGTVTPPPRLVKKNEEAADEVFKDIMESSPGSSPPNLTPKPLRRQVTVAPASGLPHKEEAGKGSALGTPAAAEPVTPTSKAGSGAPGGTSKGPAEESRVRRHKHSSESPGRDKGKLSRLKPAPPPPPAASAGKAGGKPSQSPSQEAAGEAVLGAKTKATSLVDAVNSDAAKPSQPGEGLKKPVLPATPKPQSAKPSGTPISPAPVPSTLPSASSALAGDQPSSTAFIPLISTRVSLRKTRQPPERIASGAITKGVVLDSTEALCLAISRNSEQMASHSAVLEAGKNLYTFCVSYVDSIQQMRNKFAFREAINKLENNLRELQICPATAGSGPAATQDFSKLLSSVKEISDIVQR
Chain of Ras and Rab interactor 1/Tyrosine-protein kinase ABL1 (Q13671 whole entry): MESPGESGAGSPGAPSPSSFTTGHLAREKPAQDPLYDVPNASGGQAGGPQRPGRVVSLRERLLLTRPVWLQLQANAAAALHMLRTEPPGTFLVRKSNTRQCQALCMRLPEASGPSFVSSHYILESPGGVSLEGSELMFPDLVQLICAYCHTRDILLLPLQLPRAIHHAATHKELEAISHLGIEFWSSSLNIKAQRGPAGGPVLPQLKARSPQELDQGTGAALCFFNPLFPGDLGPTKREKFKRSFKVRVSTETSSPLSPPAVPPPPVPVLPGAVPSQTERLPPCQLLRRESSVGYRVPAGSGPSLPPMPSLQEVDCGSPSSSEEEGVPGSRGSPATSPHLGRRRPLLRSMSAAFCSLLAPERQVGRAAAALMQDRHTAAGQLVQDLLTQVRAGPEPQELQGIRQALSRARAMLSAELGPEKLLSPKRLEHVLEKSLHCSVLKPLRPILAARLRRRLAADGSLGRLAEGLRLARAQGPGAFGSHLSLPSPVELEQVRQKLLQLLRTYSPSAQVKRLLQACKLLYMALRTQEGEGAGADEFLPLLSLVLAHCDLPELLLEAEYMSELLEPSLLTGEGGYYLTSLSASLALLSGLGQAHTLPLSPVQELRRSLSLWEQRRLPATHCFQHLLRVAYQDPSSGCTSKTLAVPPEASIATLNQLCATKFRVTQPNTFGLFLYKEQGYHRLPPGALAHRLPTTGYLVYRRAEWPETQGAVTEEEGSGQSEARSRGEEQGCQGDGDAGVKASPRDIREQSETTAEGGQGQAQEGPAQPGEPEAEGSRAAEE

[7] = biological target: T2, DNA dC->dU-editing enzyme APOBEC-3A (Homo sapiens, UniProt P31941); experiment: SAR analysis of small molecule inhibitors of APOBEC3A DNA Deaminase via a fluorescence-based single-stranded DNA deaminase assay - Set 2.; type: functional; settings: read-out: IC50_Mean
T2 sequence (P31941 whole entry): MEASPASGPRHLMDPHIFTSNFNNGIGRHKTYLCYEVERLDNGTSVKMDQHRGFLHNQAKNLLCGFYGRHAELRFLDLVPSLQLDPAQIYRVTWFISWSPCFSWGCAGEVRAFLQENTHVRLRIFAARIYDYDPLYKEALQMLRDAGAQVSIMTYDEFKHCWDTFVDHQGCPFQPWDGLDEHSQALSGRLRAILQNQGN

[8] = biological target: T3, DNA dC->dU-editing enzyme APOBEC-3G (Homo sapiens, UniProt Q9HC16); experiment: SAR analysis of small molecule inhibitors of APOBEC3G DNA Deaminase via a fluorescence-based single-stranded DNA deaminase assay - Set 2.; type: functional; settings: read-out: IC50_Mean
T3 sequence (Q9HC16 whole entry): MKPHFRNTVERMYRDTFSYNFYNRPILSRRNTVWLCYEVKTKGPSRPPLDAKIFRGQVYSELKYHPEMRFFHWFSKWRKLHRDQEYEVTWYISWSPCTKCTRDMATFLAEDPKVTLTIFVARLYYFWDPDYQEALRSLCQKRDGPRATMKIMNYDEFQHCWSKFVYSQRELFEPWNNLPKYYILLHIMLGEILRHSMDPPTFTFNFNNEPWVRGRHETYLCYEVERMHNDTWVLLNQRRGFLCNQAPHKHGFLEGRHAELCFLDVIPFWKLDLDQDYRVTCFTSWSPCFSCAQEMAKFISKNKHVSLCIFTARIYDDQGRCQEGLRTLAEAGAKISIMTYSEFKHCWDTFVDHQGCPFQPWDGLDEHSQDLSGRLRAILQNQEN

[9] = biological target: T3, DNA dC->dU-editing enzyme APOBEC-3G; experiment: inhibition of APOBEC3G ssDNA deamination – biochemical, fluorescence, single-stranded DNA substrate, SAR follow-up (AID 602136); type: functional; settings: read-out: IC50_Mean
[10] = biological target: T2, DNA dC->dU-editing enzyme APOBEC-3A; experiment: SAR analysis of small molecule inhibitors of APOBEC3A DNA Deaminase via a fluorescence-based single-stranded DNA deaminase assay.; type: functional; settings: read-out: IC50_Mean
[11] = test system: CHO-K1; experiment: (§1) Counterscreen for antagonists of the orexin 1 receptor (OX1R; HCRTR1): Homogeneous time resolved fluorescence (HTRF)-based cell-based dose response assay to identify antagonists of the parental CHO-K1 cell line. [Related pubchem assays (depositor defined):AID434989, AID435008, AID463079, AID485270, AID492963, AID492964, AID492965, AID493232, AID504699, AID504701]; type: functional; settings: Cricetulus griseus
[12] = as §1, with “Fluorescence-based” for “Homogeneous time resolved fluorescence (HTRF)-based”, “cell-based high throughput” for “cell-based”, “CHO” for “CHO-K1”; type: functional
[13] = biological target: T4, Orexin/Hypocretin receptor type 1 (Homo sapiens, UniProt O43613); experiment: Homogeneous Time Resolved Fluorescence (HTRF)-based cell-based high throughput dose response assay for antagonists of the orexin 1 receptor (OX1R; HCRTR1). [Related pubchem assays (depositor defined):AID434989, AID435008, AID463079, AID485270, AID492963, AID492964, AID492965, AID493232, AID504717, AID504718]; type: functional
T4 sequence (O43613 whole entry): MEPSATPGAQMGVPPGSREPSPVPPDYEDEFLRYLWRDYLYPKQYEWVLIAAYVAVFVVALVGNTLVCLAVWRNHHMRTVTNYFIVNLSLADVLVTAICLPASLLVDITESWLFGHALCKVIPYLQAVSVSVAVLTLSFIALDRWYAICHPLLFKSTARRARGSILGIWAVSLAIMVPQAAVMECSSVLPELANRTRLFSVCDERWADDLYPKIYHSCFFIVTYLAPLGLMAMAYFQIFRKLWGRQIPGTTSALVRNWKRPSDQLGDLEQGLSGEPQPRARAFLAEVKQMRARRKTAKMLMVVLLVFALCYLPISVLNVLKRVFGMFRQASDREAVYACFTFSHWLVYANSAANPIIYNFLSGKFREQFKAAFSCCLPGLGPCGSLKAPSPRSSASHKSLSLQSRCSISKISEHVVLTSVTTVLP

[14] = biological target: T4, Orexin/Hypocretin receptor type 1; experiment: Fluorescence-based cell-based high throughput dose response assay for antagonists of the orexin 1 receptor (OX1R; HCRTR1). [Related pubchem assays (depositor defined):AID434989, AID435008, AID463079, AID485270, AID492963, AID492964, AID492965, AID493232, AID504717, AID504718]; type: functional
[15] = biological target: T5, Orexin receptor type 2 (Homo sapiens, UniProt O43614); experiment: Counterscreen assay for antagonists of the orexin 1 receptor (OX1R; HCRTR1): Fluorescence-based cell-based dose response assay for antagonists of the orexin 2 receptor (OX2R; HCRTR2), run by assay provider.; type: functional
T5 sequence (O43614 whole entry): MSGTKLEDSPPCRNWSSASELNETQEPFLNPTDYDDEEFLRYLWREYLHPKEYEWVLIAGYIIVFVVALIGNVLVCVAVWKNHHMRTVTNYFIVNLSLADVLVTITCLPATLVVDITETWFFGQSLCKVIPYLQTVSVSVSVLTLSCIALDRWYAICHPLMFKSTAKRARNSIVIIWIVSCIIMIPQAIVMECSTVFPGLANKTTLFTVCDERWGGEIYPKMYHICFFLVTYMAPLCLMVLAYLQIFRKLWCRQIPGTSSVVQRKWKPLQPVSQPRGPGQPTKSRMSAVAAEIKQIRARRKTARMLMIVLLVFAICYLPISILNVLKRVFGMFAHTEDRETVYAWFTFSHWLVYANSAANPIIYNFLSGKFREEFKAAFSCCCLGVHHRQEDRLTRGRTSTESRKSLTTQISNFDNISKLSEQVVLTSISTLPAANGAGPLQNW

[16] = biological target: T5, Orexin receptor type 2; experiment: Counterscreen assay for antagonists of the orexin 1 receptor (OX1R; HCRTR1): Homogeneous Time Resolved Fluorescence (HTRF)-based cell-based dose response assay for antagonists of the orexin 2 receptor (OX2R; HCRTR2), run by assay provider.; type: functional

## Oc1ccc(C2Nc3cccc4cccc(c34)N2)cc1
[1]
  CC50: 21.8 µM (active)
[2]
  EC50: 6.73 µM (active)
[3]
  EC50: 11.1 µM (inactive)
[4]
  IC50: > 89.2 µM (inactive)
[5]
  EC50: 20.4 µM (inactive)

## OC[C@@H]1CN(Cc2ccc(-c3ccccc3)cc2)C[C@H](n2cnc3c(NC4CC4)ncnc32)O1
[6]
  IC50: 16.9 µM (inactive)

## Cc1ccc(C=Nn2c(-c3ccco3)n[nH]c2=S)s1
[7]
  IC50: 85.5 µM (inactive)
[8]
  IC50: 3.67 µM (active)
[9]
  IC50: 2.09 µM (active)
[10]
  IC50: > 99 µM (inactive)

## Cc1ccc(NC2CCCN(C(=O)c3cn(C)c4ccccc34)C2)cc1C (stereo unspecified)
[11]
  IC50: > 66.2 µM (inactive)
[12]
  IC50: > 49.7 µM (inactive)
[13]
  IC50: 0.771 µM (active)
[14]
  IC50: 8.18 µM (active)
[15]
  IC50: 7.1 µM (active)
[16]
  IC50: 1.64 µM (active)
